The text below walks through data of patent US10479780B2, “Aminopyrazole derivatives” (Chugai Seiyaku Kabushiki Kaisha, priority 2015, dated 2019).

What all share (type): biochemical
The target in one assay is T1, human Yes1 enzyme (Homo sapiens, UniProt P07947).
T1 construct: made in house
The assay is described as follows: Yes1 enzyme inhibitory activity (time-resolved fluorometry, biotinylated peptide phosphorylation). The conditions noted are these: read-out: YES_IC50. Put shortly:
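Inhibition was expressed against a compound-free control to give IC50, using TR-FRET read-out (Eu-cryptate anti-pTyr antibody, streptavidin-XL665).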

In the next assay the target is T2, human Src enzyme (Homo sapiens, UniProt P12931).
T2 construct: purchased Carna Biosciences, Inc. 08-173
T2 sequence (P12931 whole entry): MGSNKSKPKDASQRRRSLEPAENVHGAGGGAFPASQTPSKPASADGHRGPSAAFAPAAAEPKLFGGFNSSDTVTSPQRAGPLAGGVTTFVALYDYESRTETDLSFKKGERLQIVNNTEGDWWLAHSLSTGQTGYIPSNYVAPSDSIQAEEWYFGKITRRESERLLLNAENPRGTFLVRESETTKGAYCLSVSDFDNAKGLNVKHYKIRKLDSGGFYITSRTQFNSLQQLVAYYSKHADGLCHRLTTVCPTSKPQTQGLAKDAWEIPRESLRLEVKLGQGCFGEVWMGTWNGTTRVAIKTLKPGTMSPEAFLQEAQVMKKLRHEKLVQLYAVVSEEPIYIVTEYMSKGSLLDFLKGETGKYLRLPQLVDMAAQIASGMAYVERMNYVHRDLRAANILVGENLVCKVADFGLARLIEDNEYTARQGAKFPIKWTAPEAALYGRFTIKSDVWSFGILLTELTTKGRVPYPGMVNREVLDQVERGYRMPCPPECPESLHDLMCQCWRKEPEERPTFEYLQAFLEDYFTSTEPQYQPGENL
The assay is described as follows: Src enzyme inhibitory activity (time-resolved fluorometry, biotinylated peptide phosphorylation). The conditions noted are these: read-out: SRC_IC50. Put shortly:
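Compounds were tested for blocking tyrosine phosphorylation of a biotinylated peptide substrate by recombinant human Src. Phosphorylated product was quantified by time-resolved fluorometry using europium cryptate and XL665 conjugates, and IC50 was calculated against the compound-free control.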

A further assay concerns the target T3, human Lck enzyme (Homo sapiens, UniProt P06239).
T3 construct: purchased Carna Biosciences, Inc. 08-170
The assay is described as follows: Lck enzyme inhibitory activity (time-resolved fluorometry, biotinylated peptide phosphorylation). The conditions noted are these: read-out: LCK_IC50. Put shortly:
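Readout pairs a europium cryptate-labelled anti-phosphotyrosine antibody with XL665-streptavidin, measured by time-resolved fluorescence. IC50 derived from percent inhibition against untreated controls.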

The mark [1] stands for this setting: biotinylated peptide phosphorylation.

Like-named read-outs stand apart in the source and are kept apart here.

T3 sequence (P06239 whole entry): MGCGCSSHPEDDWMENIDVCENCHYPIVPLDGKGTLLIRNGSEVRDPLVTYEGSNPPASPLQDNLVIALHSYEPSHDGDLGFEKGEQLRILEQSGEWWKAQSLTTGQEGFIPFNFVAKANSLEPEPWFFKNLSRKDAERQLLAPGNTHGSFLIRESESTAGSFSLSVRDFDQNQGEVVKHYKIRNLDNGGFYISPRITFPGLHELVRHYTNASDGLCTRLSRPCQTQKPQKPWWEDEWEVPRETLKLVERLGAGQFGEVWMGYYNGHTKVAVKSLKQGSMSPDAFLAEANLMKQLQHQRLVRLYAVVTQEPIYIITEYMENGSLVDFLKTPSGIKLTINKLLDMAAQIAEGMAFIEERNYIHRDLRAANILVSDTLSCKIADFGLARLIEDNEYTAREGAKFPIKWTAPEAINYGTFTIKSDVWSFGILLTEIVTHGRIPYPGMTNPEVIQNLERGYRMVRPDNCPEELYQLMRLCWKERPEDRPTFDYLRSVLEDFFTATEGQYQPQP
T1 sequence (P07947 whole entry): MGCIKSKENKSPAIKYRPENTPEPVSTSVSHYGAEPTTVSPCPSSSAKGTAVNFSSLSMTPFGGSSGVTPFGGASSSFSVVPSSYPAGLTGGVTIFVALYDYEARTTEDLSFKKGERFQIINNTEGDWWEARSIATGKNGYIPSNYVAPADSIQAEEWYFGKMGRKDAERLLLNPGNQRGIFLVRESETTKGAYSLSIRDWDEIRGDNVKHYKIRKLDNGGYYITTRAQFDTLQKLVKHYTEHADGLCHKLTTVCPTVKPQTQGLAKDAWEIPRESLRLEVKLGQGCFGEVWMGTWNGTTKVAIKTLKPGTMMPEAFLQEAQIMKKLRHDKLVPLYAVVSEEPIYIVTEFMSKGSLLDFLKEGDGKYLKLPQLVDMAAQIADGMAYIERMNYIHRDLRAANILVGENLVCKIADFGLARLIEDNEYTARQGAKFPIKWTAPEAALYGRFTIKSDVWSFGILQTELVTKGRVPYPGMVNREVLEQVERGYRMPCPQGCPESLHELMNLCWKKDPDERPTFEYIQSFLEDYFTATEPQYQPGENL

`Cc1cc(Oc2ccccc2F)ncc1-n1ncc(C(=O)c2cc3cc(F)c(NS(=O)(=O)c4cccc(Cl)c4)cc3[nH]2)c1N` [Example 5-1-560, N-[2-[5-amino-1-[6-(2-fluorophenoxy)-4-methylpyridin-3-yl]pyrazole-4-carbonyl]-5-fluoro-1H-indol-6-yl]-3-chlorobenzenesulfonamide]: the IC50 is 16 nM at human Yes1 enzyme (setting [1]), 2400 nM at human Src enzyme (setting [1]) and 690 nM on human Lck enzyme (setting [1]).
The corresponding values for `Cc1cc(Oc2c(F)cccc2F)ncc1-n1ncc(C(=O)c2cc3cc(F)c(N(CCN4CCOCC4)S(C)(=O)=O)cc3[nH]2)c1N` [Example 4-2-128, N-[2-[5-amino-1-[6-(2,6-difluorophenoxy)-4-methylpyridin-3-yl]pyrazole-4-carbonyl]-5-fluoro-1H-indol-6-yl]-N-(2-morpholin-4-ylethyl)methanesulfonamide] are 1.2 nM, 8.6 nM and 2.7 nM.
The like results for `Cc1cc(Oc2ccccc2F)ccc1-n1ncc(C(=O)c2cc3cc(F)c(N4CC5(CCOCC5)NS4(=O)=O)cc3[nH]2)c1N` [Example 5-1-403, [5-amino-1-[4-(2-fluorophenoxy)-2-methylphenyl]pyrazol-4-yl]-[6-(2,2-dioxo-8-oxa-2λ6-thia-1.3-diazaspiro[4.5]decan-3-yl)-5-fluoro-1H-indol-2-yl]methanone] were, in that order, 0.98 nM, 88 nM and 8.6 nM.
As for `Cc1cc(Oc2ccccc2F)ncc1-n1ncc(C(=O)c2cc3cc(OCC(F)F)c(N4CCCS4(=O)=O)cc3[nH]2)c1N` [Example 4-25-001, {5-amino-1-[6-(2-fluorophenoxy)-4-methylpyridin-3-yl]pyrazol-4-yl}-[5-(2,2-difluoroethoxy)-6-(1,1-dioxo-1,2-thiazolidin-2-yl)-1H-indol-2-yl]methanone], the values for the IC50 at human Yes1 enzyme (setting [1]), at human Src enzyme (setting [1]) and on human Lck enzyme (setting [1]) were 1.6 nM, 29 nM and 9.6 nM, respectively.
The corresponding values for `Cc1cc2cc(C(=O)c3cnn(-c4cnc(Oc5ccccc5F)cc4C)c3N)[nH]c2cc1NS(=O)(=O)c1cccc2ccccc12` [Example 5-1-465, N-[2-[5-amino-1-[6-(2-fluorophenoxy)-4-methylpyridin-3-yl]pyrazole-4-carbonyl]-5-methyl-1H-indol-6-yl]naphthalene-1-sulfonamide] are 25 nM, 4000 nM and 510 nM.
The corresponding values for `Cc1cc(-n2ncc(C(=O)c3cc4cc(C)c(N5C(=O)NC6(COC6)C5=O)cc4[nH]3)c2N)ccc1Oc1ccccc1F` [Example 5-1-475, 7-[2-[5-amino-1-[4-(2-fluorophenoxy)-3-methylphenyl]pyrazole-4-carbonyl]-5-methyl-1H-indol-6-yl]-2-oxa-5,7-diazaspiro[3.4] octane-6,8-dione] are 8.2 nM, 1400 nM and 71 nM.
Take `CC(C)N1CCC(c2cc3[nH]c(C(=O)c4cnn(-c5ccc(Oc6cccc(F)c6)cc5)c4N)cc3cc2F)CC1` [Example 5-1-014, [5-amino-1-[4-(3-fluorophenoxy)phenyl]pyrazol-4-yl]-[5-fluoro-6-(1-propan-2-ylpiperidin-4-yl)-1H-indol-2-yl]methanone]: the results for the IC50 at human Yes1 enzyme, on human Src enzyme and at human Lck enzyme were 2.4 nM, 43 nM and 3 nM, respectively.
The like results for `Cc1cc(Oc2ccccc2F)ncc1-n1ncc(C(=O)c2cc3cc(F)c(NS(=O)(=O)NC4CC4)cc3[nH]2)c1N` [Example 5-1-020, [5-amino-1-[6-(2-fluorophenoxy)-4-methylpyridin-3-yl]pyrazol-4-yl]-[6-(cyclopropylsulfamoylamino)-5-fluoro-1H-indol-2-yl]methanone] were, in that order, 5.7 nM, 190 nM and 51 nM.
Turning to `Cc1cc(Oc2c(F)cccc2F)ncc1-n1ncc(C(=O)c2cc3cc(SC(F)F)c(N4C(=O)NC(C)(C)C4=O)cc3[nH]2)c1N` [Example 5-1-324, 3-[2-[5-amino-1-[6-(2,6-difluorophenoxy)-4-methylpyridin-3-yl]pyrazole-4-carbonyl]-5-(difluoromethylsulfanyl)-1H-indol-6-yl]-6,5-dimethylimidazolidine-2,4-dione], the IC50 at human Yes1 enzyme is 10 nM; on human Src enzyme it was 230 nM; on human Lck enzyme, 19 nM.
For `Cc1cc2cc(C(=O)c3cnn(-c4cnc(Oc5ccccc5F)cc4C)c3N)[nH]c2cc1NS(=O)(=O)c1cc(F)ccn1` [Example 5-1-505, N-[2-[5-amino-1-[6-(2-fluorophenoxy)-4-methylpyridin-3-yl]pyrazole-4-carbonyl]-5-methyl-1H-indol-6-yl]-4-fluoropyridine-2-sulfonamide], the figures for the IC50 at human Yes1 enzyme (setting [1]), at human Src enzyme (setting [1]) and on human Lck enzyme (setting [1]) were 2.5 nM, 470 nM and 68 nM, respectively.
Turning to `Cc1cc2cc(C(=O)c3cnn(-c4cnc(Oc5ccccc5F)cc4C)c3N)[nH]c2cc1NS(=O)(=O)c1cccc(Cl)c1` [Example 5-1-464, N-[2-[5-amino-1-[6-(2-fluorophenoxy)-4-methylpyridin-3-yl]pyrazole-4-carbonyl]-5-methyl-1H-indol-6-yl]-3-chlorobenzenesulfonamide], the IC50 at human Yes1 enzyme (setting [1]) came to 9.3 nM; at human Src enzyme (setting [1]) it was 1200 nM; on human Lck enzyme (setting [1]) it was 310 nM.
With `Cc1cc(Oc2ccc(F)cc2)ncc1-n1ncc(C(=O)c2cc3cc(F)c(NS(C)(=O)=O)cc3[nH]2)c1N` [Example 4-2-039, N-[2-[5-amino-1-[6-(4-fluorophenoxy)-4-methylpyridin-3-yl]pyrazole-4-carbonyl]-5-fluoro-1H-indol-6-yl]methanesulfonamide], the IC50 at human Yes1 enzyme (setting [1]) was 4.1 nM; at human Src enzyme (setting [1]), 84 nM; at human Lck enzyme (setting [1]) it was 32 nM.
As to `Cc1cc(Oc2ccccc2F)ccc1-n1ncc(C(=O)c2cc3cc(F)c(N4CCOCC4)cc3[nH]2)c1N` [Example 5-1-119, [5-amino-1-[4-(2-fluorophenoxy)-2-methylphenyl]pyrazol-4-yl]-(5-fluoro-6-morpholin-4-yl-1H-indol-2-yl)methanone], the IC50 on human Yes1 enzyme turned out to be 1.8 nM; on human Src enzyme, 15 nM; at human Lck enzyme it was 4.8 nM.
Take `CC(=O)N1CCC(c2cc3[nH]c(C(=O)c4cnn(-c5c(C)cc(Oc6ccccc6F)cc5F)c4N)cc3cc2OCC(F)F)CC1` [Example 4-17-017, 1-[4-[2-[5-amino-1-[2-fluoro-4-(2-fluorophenoxy)-6-methylphenyl]pyrazole-4-carbonyl]-5-(2,2-difluoroethoxy)-1H-indol-6-yl]piperidin-1-yl]ethanone]: the IC50 at human Yes1 enzyme (setting [1]) came to 2.1 nM; on human Src enzyme (setting [1]), 17 nM; on human Lck enzyme (setting [1]) it was 5.8 nM.
For `Cc1cc(Oc2c(F)cccc2F)ncc1-n1ncc(C(=O)c2cc3cc(OCC(F)F)c(NS(=O)(=O)C4CCCCC4)cc3[nH]2)c1N` [Example 5-1-315, N-[2-[5-amino-1-[6-(2,6-difluorophenoxy)-4-methylpyridin-3-yl]pyrazole-4-carbonyl]-5-(2,2-difluoroethoxy)-1H-indol-6-yl] cyclohexanesulfonamide], the IC50 on human Yes1 enzyme stood at 8.1 nM; on human Src enzyme it was 330 nM; at human Lck enzyme, 130 nM.
In the case of `Cc1cc(Oc2ccccc2F)cc(F)c1-n1ncc(C(=O)c2cc3cc(OCC(F)F)c(NS(=O)(=O)C4CC4)cc3[nH]2)c1N` [Example 4-24-024, N-[2-[5-amino-1-[2-fluoro-4-(2-fluorophenoxy)-6-methylphenyl]pyrazole-4-carbonyl]-5-(2,2-difluoroethoxy)-1H-indol-6-yl]cyclopropanesulfonamide], the IC50 on human Yes1 enzyme (setting [1]) is 3.3 nM; at human Src enzyme (setting [1]) it was 130 nM; on human Lck enzyme (setting [1]), 46 nM.
With `Cc1cc(Oc2c(F)cccc2F)ncc1-n1ncc(C(=O)c2cc3cc(OCC(F)F)c(NS(=O)(=O)Cc4ccccc4)cc3[nH]2)c1N` [Example 5-1-296, N-[2-[5-amino-1-[6-(2,6-difluorophenoxy)-4-methylpyridin-3-yl]pyrazole-4-carbonyl]-5-(2,2-difluoroethoxy)-1H-indol-6-yl]-1-phenylmethanesulfonamide], the IC50 was 5.9 nM at human Yes1 enzyme, 150 nM at human Src enzyme and 46 nM on human Lck enzyme.
Turning to `Cc1cc(Oc2ccccc2F)ccc1-n1ncc(C(=O)c2cc3cc(F)c(NS(=O)(=O)NC4(C)COC4)cc3[nH]2)c1N` [Example 4-5-008, [5-amino-1-[4-(2-fluorophenoxy)-2-methylphenyl]pyrazol-4-yl]-[5-fluoro-6-[(3-methyloxetan-3-yl)sulfamoylamino]-1H-indol-2-yl]methanone], the IC50 at human Yes1 enzyme (setting [1]) was 0.55 nM; on human Src enzyme (setting [1]), 31 nM; at human Lck enzyme (setting [1]) it was 8.2 nM.
Consider `Cc1cc2cc(C(=O)c3cnn(-c4c(C)cc(Oc5ccccc5F)cc4F)c3N)[nH]c2cc1C1CCN(S(C)(=O)=O)CC1` [Example 5-1-111, [5-amino-1-[2-fluoro-4-(2-fluorophenoxy)-6-methylphenyl]pyrazol-4-yl]-[5-methyl-6-(1-methylsulfonylpiperidin-4-yl)-1H-indol-2-yl] methanone], for which the IC50 stood at 14 nM at human Yes1 enzyme, 46 nM at human Src enzyme and 14 nM at human Lck enzyme.
For `Cc1cc(-n2ncc(C(=O)c3cc4cc(OC5CCN(C(C)C)CC5)c(N5C(=O)N[C@@H](C)C5=O)cc4[nH]3)c2N)ccc1Oc1ccccc1F` [Example 5-1-287, (5S)-3-[2-[5-amino-1-[4-(2-fluorophenoxy)-3-methylphenyl]pyrazole-4-carbonyl]-5-(1-propan-2-ylpiperidin-4-yl)oxy-1H-indol-6-yl]-5-methylimidazolidine-2.4-dione], the IC50 at human Yes1 enzyme is 1 nM; at human Src enzyme, 350 nM; on human Lck enzyme, 17 nM.
